Laboratory results as given in publication PMC10034409 (Frontiers in Pharmacology, 2023).
“Also recorded” adds a separate entry of the source.

Tests used:
AChE = biological target: T1, AChE (Homo sapiens, UniProt P22303); assay: biochemical; type: biochemical; conditions: for AChE IC50 / IC50: mean ± SEM of 3 experiments; for Ki: mean ± SEM, mean of four values from Lineweaver-Burk plot, its secondary re-plots and Dixon plot
T1 construct: purchased Sigma Aldrich (Steinheim, Germany)
Experimental: (§1) The test compounds were prepared fresh immediately before each experiment. Test compounds were added to 150 µl […] phosphate buffer (pH 8.0), 200 µl methanol, and 20 µl of the test enzymes and were incubated at 25°C for 15 min. A sample with an equal amount of solvent (ethanol) in place of the test compounds served as a negative control. 10 μl of DTNB reagent was added to the samples, and the reaction was initiated by adding 10 μl acetylthiocholine (ATCh) or butyrylthiocholine (BTCh) for the estimation of AChE and BChE, respectively. All the experiments were conducted in triplicate. […] The rate of enzyme inhibition was calculated as the change in optical density per minute (OD/min).
(§2) The enzyme inhibition activities of serially diluted concentrations of test compounds were measured, and the IC50 values were calculated using EZ-Fit Enzyme Kinetics Program.
(§3) The dissociation constant (Ki) values, which signified the dissociation of the enzyme-inhibitor complex into free enzyme and inhibitor, were also determined. […] These velocities were obtained over a range of substrate concentrations between 0.1 and 0.4 mM for ATCh and 0.05 and 0.2 mM for BTCh. The assay conditions for measurement of the residual activities of all inhibitors were identical to the aforementioned spectrophotometric assay procedure, except that the fixed concentrations of inhibiting compounds were used in the assay medium. Assays were conducted in triplicate at each concentration of the inhibitor.
(§4) The inhibition patterns of tested coumarins were determined by the graphical views of Dixon plots, Lineweaver-Burk plots, and their secondary re-plots. […] The linear regression analysis values, correlation coefficient, slope, intercept, and standard errors were obtained using the same software. Two different methods were applied to monitor the effects of the test sample on both Michaelis constant (K m ) and maximum velocity (V max) values. […] The secondary re-plots of the Lineweaver-Burk were also constructed in two ways; firstly, the reciprocal of apparent V max (1/V maxapp ) values were determined at each intersection point for every inhibitor concentration line on the y-axis of the Lineweaver-Burk plot and then re-plotted against different concentrations of the respective inhibitor. […] The secondary re-plot of the Dixon plot was constructed as the slope of each line of substrate concentration in the original Dixon plot against the reciprocals of substrate concentrations.

BChE = biological target: T2, BChE (Homo sapiens, UniProt P06276); assay: biochemical; type: biochemical; conditions: for Ki: mean ± SEM, mean of four values from Lineweaver-Burk plot, its secondary re-plots and Dixon plot
T2 construct: purchased Sigma Aldrich (Steinheim, Germany)
T2 sequence (P06276 29-602): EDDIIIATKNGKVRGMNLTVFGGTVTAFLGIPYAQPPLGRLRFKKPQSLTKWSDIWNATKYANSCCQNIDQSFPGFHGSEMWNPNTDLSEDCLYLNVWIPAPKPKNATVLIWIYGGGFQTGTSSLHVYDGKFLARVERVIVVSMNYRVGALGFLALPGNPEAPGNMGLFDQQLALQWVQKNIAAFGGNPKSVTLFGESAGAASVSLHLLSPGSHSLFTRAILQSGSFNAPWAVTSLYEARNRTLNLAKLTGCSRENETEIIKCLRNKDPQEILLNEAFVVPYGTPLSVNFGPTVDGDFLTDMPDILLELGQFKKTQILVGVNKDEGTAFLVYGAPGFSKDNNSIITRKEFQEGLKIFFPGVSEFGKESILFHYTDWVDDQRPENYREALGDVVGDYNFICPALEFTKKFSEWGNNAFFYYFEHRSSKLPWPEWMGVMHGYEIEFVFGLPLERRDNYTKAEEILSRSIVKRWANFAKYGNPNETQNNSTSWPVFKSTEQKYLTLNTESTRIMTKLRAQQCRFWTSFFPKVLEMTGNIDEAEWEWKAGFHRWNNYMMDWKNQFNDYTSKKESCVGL
Experimental: as §1, §2, §3, §4

T1 sequence (P22303 32-614): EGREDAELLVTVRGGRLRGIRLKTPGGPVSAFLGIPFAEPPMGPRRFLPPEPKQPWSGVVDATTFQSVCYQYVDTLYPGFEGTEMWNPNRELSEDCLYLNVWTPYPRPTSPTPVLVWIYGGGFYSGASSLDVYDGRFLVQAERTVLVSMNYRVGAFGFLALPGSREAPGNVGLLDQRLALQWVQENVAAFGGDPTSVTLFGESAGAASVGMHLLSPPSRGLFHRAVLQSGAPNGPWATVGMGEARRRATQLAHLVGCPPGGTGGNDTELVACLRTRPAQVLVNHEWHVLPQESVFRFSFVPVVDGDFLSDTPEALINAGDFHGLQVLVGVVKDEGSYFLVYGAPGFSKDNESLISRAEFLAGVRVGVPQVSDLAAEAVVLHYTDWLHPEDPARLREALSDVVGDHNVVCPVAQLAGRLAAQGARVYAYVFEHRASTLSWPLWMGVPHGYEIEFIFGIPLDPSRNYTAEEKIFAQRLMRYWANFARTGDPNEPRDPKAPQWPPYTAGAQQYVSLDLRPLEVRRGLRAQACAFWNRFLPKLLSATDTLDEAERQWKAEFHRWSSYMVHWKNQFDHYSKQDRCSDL

Compound: C=C(C)[C@@H](OCC)[C@@H](O)c1c(OC)ccc2ccc(=O)oc12 [2′-O-Ethylmurrangatin (1), 2′-O-ethylmurrangatin]
- AChE IC50 (AChE): No activity upto 1 mM
- AChE IC50 (AChE; listed as 2′-O-ethylmurrangatin (1)): not active at 1 mM conc; also recorded: did not show any inhibition
- BChE IC50 (BChE; mean ± SEM of 3 experiments): very weak activity
- IC50 (BChE; mean ± SEM of 3 experiments): 843 ± 13 µM

Compound: COc1ccc2ccc(=O)oc2c1C(OC(=O)CC(C)C)C(=O)C(C)C (centres unmarked) [Paniculatin (3), paniculatin]
- Type of inhibition of AChE (in words) (AChE): mixed-type inhibitor
- IC50 (AChE): 31.6 ± 0.03 µM
- Ki (AChE): 43 ± 0.65 µM
- Type of inhibition of BChE (in words) (BChE): mixed-type inhibitor
- Ki (BChE): 22 ± 0.6 µM

Compound: COc1ccc2ccc(=O)oc2c1C(O)C(=O)C(C)C (centres unmarked) [Murranganone (2), murranganone]
- Type of inhibition of AChE (in words) (AChE): pure non-competitive inhibition
- IC50 (AChE): 79.1 ± 2.02 µM
- Ki (AChE): 50 ± 0.58 µM
- AChE Type of inhibition (AChE; table abbreviations): NC ^d
- Type of inhibition of BChE (in words) (BChE): mixed-type inhibition
- IC50 (BChE; mean ± SEM of 3 experiments): 74.3 ± 0.75 µM
- Ki (BChE): 22 ± 0.44 µM
- BChE Type of inhibition (BChE; table abbreviations): LM ^e
